Among the data in ChEMBL document CHEMBL5465560, “Selectivity Literature for EUbOPEN Chemogenomic Library” (2024) are % of control and % of inhibition values, retold here.

Experiment [1] addresses T1, Serine/threonine-protein kinase Sgk2 (Homo sapiens) (UniProt Q9HBY8).
T1 sequence (whole entry): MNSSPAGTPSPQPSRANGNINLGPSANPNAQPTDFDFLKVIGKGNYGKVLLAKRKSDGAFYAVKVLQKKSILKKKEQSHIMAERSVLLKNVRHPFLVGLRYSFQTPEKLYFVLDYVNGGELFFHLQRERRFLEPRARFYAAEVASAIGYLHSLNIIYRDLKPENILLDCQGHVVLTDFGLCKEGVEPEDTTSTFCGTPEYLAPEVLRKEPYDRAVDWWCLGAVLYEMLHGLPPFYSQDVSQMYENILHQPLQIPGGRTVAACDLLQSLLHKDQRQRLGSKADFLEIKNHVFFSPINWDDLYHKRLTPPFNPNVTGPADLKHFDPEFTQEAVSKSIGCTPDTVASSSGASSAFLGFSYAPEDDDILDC
As to the kind of experiment: Selectivity interaction (ProQinase) EUB0000171b SGK2.

Experiment [2] has as its target Protein-tyrosine kinase 6 (Homo sapiens, UniProt Q13882). The conditions noted are these: at 10 µM.
Experiment [3] addresses Cyclin-dependent kinase 5/CDK5 activator 1 (Homo sapiens) (UniProt Q00535+Q15078). As to the kind of experiment: Selectivity interaction (Millipore kinase profiler) EUB0000124b CDK5. The experiment is classed as protein-complex assay. As to conditions: at 10 µM.
The target of experiment [4] is BDNF/NT-3 growth factors receptor (Homo sapiens) (UniProt Q16620). As to the kind of experiment: Selectivity interaction (KinomeScan (DiscoverX)) EUB0000092b NTRK2. As to conditions: at 10 µM.
BDNF/NT-3 growth factors receptor (Homo sapiens), sequence (Q16620 32-822 limits assumed): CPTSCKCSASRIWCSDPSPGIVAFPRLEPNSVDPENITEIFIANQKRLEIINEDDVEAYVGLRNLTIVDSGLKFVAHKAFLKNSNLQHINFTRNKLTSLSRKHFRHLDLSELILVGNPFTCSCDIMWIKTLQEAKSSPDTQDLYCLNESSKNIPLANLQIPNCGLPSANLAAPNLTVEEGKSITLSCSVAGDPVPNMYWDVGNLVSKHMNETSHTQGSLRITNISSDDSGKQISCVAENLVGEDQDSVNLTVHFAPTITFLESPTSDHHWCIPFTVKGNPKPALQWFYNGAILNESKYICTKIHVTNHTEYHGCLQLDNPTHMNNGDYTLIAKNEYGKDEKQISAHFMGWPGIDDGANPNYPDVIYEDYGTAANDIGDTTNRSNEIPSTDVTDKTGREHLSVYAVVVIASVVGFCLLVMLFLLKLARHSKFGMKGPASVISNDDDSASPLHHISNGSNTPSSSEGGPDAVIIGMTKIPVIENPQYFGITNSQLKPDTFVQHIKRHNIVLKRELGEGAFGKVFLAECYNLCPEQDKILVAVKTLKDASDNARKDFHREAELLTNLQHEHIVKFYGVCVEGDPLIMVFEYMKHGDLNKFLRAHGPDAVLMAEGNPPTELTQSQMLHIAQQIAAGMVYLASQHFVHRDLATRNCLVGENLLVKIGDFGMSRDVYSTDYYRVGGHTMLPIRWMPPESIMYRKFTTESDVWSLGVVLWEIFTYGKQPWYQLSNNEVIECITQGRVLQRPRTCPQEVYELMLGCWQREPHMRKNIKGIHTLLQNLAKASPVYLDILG
In experiment [5] the target is Dual specificity mitogen-activated protein kinase kinase 1 (Homo sapiens, UniProt Q02750). Put plainly: Selectivity interaction (KinomeScan (DiscoverX)) EUB0000655a MAP2K1. As to conditions: at 10 µM.
The target in experiment [6] is Serine/threonine-protein kinase/endoribonuclease IRE1 (Homo sapiens) (UniProt O75460). As to the kind of experiment: Selectivity interaction (KinomeScan (DiscoverX)) EUB0000695a ERN1. As to conditions: at 100 nM.
Experiment [7] addresses MAP/microtubule affinity-regulating kinase 3 (Homo sapiens) (UniProt P27448). Put plainly: Selectivity interaction (KinomeScan (DiscoverX)) EUB0000695a MARK3. As to conditions: at 100 nM.
In experiment [8] the target is Tyrosine-protein kinase receptor UFO (Homo sapiens) (UniProt P30530). As to the kind of experiment: Selectivity interaction (Rxn Biology Kinase assay) EUB0001632a AXL. As to conditions: at 10 µM.
Experiment [9] has as its system Mast/stem cell growth factor receptor Kit (Homo sapiens), P10721 [N822K]. Put plainly: (§1) Selectivity interaction (LanthaScreen Eu Kinase Binding Assay) EUB0001632a KIT. As to conditions: at 10 µM.
Experiment [10] relates to Mast/stem cell growth factor receptor Kit (Homo sapiens), P10721 [V559D,T670I]. The experiment is described as §1. The conditions noted are these: at 10 µM.
Experiment [11] relates to Mast/stem cell growth factor receptor Kit (Homo sapiens), P10721 [D820E]. Described as §1. As to conditions: at 10 µM.
Experiment [12] deals with Mast/stem cell growth factor receptor Kit (Homo sapiens), P10721 [Y823D]. The experiment is described as §1. The conditions noted are these: at 10 µM.
The test system of experiment [13] is Mast/stem cell growth factor receptor Kit (Homo sapiens), P10721 [V654A]. The description is as §1. As to conditions: at 10 µM.
Mast/stem cell growth factor receptor Kit (Homo sapiens), P10721 [V654A], sequence (P10721 whole entry V654A): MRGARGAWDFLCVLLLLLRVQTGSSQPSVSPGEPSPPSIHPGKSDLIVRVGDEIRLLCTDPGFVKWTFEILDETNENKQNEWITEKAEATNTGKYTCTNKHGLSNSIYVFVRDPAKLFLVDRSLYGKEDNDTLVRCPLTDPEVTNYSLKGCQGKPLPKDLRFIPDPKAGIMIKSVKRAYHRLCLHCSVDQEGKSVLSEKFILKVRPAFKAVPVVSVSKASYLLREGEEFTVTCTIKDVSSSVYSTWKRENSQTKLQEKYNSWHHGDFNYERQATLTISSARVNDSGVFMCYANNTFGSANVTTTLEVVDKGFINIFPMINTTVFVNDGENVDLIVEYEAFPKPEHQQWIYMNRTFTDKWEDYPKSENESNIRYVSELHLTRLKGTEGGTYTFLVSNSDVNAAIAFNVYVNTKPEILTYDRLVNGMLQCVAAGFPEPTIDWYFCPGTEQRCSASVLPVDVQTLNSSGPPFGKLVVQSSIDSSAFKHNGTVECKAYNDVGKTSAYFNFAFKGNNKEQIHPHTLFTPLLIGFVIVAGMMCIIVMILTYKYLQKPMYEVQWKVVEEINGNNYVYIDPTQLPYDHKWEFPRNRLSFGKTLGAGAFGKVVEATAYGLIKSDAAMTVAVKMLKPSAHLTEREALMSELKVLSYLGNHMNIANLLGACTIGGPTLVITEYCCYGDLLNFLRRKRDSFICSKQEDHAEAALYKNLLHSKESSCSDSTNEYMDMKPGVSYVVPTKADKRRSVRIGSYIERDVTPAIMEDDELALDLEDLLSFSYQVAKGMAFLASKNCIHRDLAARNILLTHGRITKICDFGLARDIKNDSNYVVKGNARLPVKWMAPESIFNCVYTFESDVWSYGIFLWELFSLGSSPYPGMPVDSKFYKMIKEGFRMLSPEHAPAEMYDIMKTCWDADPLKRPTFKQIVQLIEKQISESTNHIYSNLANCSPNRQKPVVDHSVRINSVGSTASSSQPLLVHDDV
The subject of experiment [14] is Mast/stem cell growth factor receptor Kit (Homo sapiens), P10721 [D816H]. The experiment is described as §1. As to conditions: at 10 µM.
The subject of experiment [15] is Mast/stem cell growth factor receptor Kit (Homo sapiens), P10721 [A829P]. Described as §1. The conditions noted are these: at 10 µM.
Experiment [16] deals with Mast/stem cell growth factor receptor Kit (Homo sapiens), P10721 [D816V]. The description is as §1. The conditions noted are these: at 10 µM.
Experiment [17] concerns Mast/stem cell growth factor receptor Kit (Homo sapiens), P10721 [T670E]. Described as §1. As to conditions: at 10 µM.
Mast/stem cell growth factor receptor Kit (Homo sapiens), P10721 [T670E], sequence (P10721 whole entry T670E): as the sequence (P10721 whole entry V654A) above, with A654V, T670E counted along it
The target of experiment [18] is T2, Aurora kinase A (Homo sapiens) (UniProt O14965).
T2 sequence (whole entry): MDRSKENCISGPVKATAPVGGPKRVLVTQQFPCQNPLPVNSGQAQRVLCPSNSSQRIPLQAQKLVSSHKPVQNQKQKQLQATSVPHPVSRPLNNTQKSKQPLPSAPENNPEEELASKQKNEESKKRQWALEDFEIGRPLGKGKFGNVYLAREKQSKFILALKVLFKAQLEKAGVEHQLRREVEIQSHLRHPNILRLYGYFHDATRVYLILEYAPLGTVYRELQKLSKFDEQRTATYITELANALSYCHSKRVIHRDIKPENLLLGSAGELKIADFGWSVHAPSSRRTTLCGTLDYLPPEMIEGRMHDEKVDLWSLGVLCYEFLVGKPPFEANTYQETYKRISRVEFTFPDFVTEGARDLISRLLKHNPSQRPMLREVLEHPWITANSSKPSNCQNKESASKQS
Put plainly: Selectivity interaction (Kinase panel (Z-LYTE Assay)) EUB0001632a STK6. As to conditions: at 10 µM.

The target of experiment [19] is Atypical kinase COQ8A, mitochondrial (Homo sapiens, UniProt Q8NI60). Put plainly: Selectivity interaction (KinomeScan (DiscoverX)) EUB0000607a ADCK3. The conditions noted are these: at 10 µM.
Experiment [20] concerns the target T3, Serine/threonine-protein kinase BRSK1 (Homo sapiens) (UniProt Q8TDC3).
T3 sequence (whole entry): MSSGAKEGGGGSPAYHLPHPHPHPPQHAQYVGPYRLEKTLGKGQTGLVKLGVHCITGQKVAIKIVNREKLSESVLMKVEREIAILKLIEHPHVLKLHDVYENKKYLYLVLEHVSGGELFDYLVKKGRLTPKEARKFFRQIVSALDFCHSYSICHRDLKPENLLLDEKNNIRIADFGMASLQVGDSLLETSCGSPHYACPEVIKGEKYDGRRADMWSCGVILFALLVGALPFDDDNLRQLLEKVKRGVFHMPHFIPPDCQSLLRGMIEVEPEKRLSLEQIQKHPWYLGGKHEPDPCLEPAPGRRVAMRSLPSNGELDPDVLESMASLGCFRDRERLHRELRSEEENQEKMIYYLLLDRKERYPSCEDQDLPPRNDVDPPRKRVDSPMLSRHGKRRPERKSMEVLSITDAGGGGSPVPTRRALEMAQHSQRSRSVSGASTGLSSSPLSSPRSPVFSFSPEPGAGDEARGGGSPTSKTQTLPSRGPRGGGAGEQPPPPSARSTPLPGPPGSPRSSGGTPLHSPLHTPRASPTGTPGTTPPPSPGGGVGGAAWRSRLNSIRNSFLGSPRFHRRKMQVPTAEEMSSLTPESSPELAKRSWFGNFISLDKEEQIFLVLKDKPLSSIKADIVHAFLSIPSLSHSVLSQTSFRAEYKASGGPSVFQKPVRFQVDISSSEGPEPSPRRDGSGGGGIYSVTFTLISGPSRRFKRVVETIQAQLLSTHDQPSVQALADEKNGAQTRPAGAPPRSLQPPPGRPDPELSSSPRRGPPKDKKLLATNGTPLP
As to conditions: at 10 µM.

Experiment [21] has as its target Mitogen-activated protein kinase 14 (Homo sapiens, UniProt Q16539). Put plainly: Selectivity interaction (ActivX KiNativ screen (ex vivo kinase selectivity in human PBMCs)) EUB0001619a MAPK14. Format: cell-based. As to conditions: PBMC, at 1 µM.
Experiment [22] deals with Serine/threonine-protein kinase SBK1 (Homo sapiens) (UniProt Q52WX2). As to the kind of experiment: Selectivity interaction (KinomeScan (DiscoverX)) EUB0001619a SBK1. As to conditions: at 1 µM.

Mast/stem cell growth factor receptor Kit (Homo sapiens), P10721 [D816H], sequence (P10721 whole entry D816H): as the sequence (P10721 whole entry V654A) above, with A654V, D816H counted along it
Protein-tyrosine kinase 6, sequence (Q13882 whole entry, looked up): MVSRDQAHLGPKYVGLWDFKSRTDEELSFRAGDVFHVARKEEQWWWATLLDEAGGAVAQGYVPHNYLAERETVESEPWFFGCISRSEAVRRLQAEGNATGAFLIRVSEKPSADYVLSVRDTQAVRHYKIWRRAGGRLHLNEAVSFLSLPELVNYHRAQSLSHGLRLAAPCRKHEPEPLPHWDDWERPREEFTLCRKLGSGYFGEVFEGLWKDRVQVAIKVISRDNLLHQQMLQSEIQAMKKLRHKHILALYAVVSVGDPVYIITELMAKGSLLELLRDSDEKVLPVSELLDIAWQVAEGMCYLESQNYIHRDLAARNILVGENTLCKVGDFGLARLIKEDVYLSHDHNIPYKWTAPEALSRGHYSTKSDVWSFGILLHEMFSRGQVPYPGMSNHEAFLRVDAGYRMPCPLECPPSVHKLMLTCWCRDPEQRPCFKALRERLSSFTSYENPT
MAP/microtubule affinity-regulating kinase 3 (Homo sapiens), sequence (P27448 whole entry, looked up): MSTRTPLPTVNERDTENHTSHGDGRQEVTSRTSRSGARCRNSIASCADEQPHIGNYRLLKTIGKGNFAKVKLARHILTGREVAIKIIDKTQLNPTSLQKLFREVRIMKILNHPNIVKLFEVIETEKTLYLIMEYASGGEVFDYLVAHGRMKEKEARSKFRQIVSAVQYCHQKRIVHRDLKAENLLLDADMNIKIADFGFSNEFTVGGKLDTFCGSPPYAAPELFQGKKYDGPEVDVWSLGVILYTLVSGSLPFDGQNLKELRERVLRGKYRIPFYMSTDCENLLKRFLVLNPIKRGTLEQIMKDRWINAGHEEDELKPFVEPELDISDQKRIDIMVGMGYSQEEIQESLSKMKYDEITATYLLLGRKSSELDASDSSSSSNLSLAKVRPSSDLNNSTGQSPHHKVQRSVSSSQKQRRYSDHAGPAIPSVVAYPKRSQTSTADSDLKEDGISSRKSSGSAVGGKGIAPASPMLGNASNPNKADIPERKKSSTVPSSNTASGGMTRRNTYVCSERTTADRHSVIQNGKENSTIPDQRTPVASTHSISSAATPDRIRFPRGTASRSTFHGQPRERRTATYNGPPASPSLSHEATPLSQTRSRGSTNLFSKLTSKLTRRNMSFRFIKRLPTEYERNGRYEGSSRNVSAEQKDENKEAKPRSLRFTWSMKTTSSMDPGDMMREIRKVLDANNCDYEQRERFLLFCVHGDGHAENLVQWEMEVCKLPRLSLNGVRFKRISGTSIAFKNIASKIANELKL

For the compound `C=CC(=O)Nc1cccc(C(=O)Nc2ccc(Nc3cc(-c4[nH]c(SC)nc4C)ccn3)cc2)c1`, the % of control in experiment [1] (at 1 µM) turned out to be 93%; in experiment [1] (at 5 µM), 71%.
For the compound `CCN(CC)CCCCNc1ncc2cc(-c3cc(OC)cc(OC)c3)c(NC(=O)NC(C)(C)C)nc2n1`, in experiment [2], the % of control was 100%.
Consider `CC(=O)Nc1cccc(-n2c(=O)n(C3CC3)c(=O)c3c(Nc4ccc(I)cc4F)n(C)c(=O)c(C)c32)c1`, for which, in [3], the % of control was 102%.
In [4], `CCC(=O)N1CCN(c2ccc(-n3c(=O)ccc4cnc5ccc(-c6cnc7ccccc7c6)cc5c43)cc2C(F)(F)F)CC1` returned a % of control of 81%.
Consider `CN(C)CCOc1ccc(-c2nc(-c3ccncc3)c(-c3ccc4c(c3)CC/C4=N\O)[nH]2)cc1`, for which the % of control in experiment [5] came to 99%.
Turning to `Cc1cc(F)c(C(=O)Nc2cccc(-c3nncn3C(C)C)n2)cc1-n1cnc(C2CC2)c1`, the % of control in experiment [6] was determined as 88%; in experiment [7] it was 90%.
For `Cn1cc(-n2cnc3c(NCc4nc5cc(Cl)c(Cl)cc5[nH]4)nc(N4CCOCC4)nc32)cn1`, the % of inhibition in experiment [8] is 4.15%; in [9], -18.2%; in experiment [10], 1.44%; in experiment [11] it was -6.81%; in [12], -40.5%; in [13], -40.6%. The % of inhibition was 9.61% in [14], -25.5% in experiment [15], -20.9% in [16] and -20.6% in [17]. In addition, the % of control in experiment [18] amounted to 9.63%.
The compound `CNC(=O)Nc1ccc(-c2nc(N3CC4CCC(C3)O4)c3cnn(C4CCC5(CC4)OCCO5)c3n2)cc1` displayed a % of control in experiment [19] of 86%.
For the compound `COCC(=O)NC/C=C/c1ccc2ncnc(Nc3ccc(Oc4ccc(C)nc4)c(C)c3)c2c1` [CP-724714], the % of control in experiment [20] was 100%.
`N#Cc1cccc(-c2c[nH]c3ncnc(N4CCOCC4)c23)c1`: the % of inhibition in experiment [21] was -15%. Besides, in experiment [22], the % of control is 100%.
